Holding throughout (type): cell-based
The target in one experiment is T1, human TLR9 (Homo sapiens, UniProt Q9NR96).
T1 construct: host or cells: HEK-Blue cells
T1 sequence (Q9NR96 26-1032): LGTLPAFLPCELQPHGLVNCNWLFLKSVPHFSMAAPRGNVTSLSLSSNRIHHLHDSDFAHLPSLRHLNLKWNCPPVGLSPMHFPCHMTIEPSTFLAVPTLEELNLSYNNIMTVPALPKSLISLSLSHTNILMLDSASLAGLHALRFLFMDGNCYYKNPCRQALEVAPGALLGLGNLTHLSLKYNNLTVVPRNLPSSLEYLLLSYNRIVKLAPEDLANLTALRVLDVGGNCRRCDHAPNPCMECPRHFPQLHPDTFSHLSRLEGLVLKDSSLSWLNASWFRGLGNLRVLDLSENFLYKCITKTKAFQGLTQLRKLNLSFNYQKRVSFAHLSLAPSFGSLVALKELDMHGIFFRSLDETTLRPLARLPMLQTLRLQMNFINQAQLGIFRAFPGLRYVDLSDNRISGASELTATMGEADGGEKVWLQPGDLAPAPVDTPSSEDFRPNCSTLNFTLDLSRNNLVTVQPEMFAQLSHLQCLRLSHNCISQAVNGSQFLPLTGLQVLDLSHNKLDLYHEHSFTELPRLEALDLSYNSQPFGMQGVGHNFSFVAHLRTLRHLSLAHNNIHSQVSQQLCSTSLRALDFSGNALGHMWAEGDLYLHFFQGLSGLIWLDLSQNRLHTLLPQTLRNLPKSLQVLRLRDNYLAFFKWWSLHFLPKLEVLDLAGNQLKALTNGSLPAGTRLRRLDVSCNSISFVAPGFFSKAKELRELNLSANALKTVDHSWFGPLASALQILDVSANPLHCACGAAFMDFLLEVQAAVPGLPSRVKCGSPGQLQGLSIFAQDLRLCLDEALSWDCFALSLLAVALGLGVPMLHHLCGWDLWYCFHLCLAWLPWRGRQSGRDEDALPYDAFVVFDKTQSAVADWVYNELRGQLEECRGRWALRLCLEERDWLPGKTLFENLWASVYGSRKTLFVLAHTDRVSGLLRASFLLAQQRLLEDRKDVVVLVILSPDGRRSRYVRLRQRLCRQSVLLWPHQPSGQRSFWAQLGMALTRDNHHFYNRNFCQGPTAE
Put plainly: TLR9 inhibition reporter assay (HEK-Blue, SEAP). The conditions noted are these: HEK-Blue cells overexpressing human TLR9, ligand ODN2006 200 nM, 22 hour incubation. The gist of the method: (§1)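 HEK-Blue cells expressing human TLR7, TLR8 or TLR9 with NF-κB/AP-1-driven SEAP reporter; compounds 0.85 nM–50 μM, pre-treated 60 min. Stimulation: gardiquimod 2.5 μM (TLR7), R848 14.25 μM (TLR8), ODN2006 200 nM (TLR9); SEAP read after 22 h at 37 °C. Percent inhibition normalized between agonist+DMSO and known-inhibitor wells.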
On the technique in general: In a reporter assay the amount or activity of a reporter protein is the signal.

The target in another experiment is T2, human TLR7 (Homo sapiens, UniProt Q9NYK1).
T2 construct: host or cells: HEK-Blue cells
T2 sequence (Q9NYK1 27-1049): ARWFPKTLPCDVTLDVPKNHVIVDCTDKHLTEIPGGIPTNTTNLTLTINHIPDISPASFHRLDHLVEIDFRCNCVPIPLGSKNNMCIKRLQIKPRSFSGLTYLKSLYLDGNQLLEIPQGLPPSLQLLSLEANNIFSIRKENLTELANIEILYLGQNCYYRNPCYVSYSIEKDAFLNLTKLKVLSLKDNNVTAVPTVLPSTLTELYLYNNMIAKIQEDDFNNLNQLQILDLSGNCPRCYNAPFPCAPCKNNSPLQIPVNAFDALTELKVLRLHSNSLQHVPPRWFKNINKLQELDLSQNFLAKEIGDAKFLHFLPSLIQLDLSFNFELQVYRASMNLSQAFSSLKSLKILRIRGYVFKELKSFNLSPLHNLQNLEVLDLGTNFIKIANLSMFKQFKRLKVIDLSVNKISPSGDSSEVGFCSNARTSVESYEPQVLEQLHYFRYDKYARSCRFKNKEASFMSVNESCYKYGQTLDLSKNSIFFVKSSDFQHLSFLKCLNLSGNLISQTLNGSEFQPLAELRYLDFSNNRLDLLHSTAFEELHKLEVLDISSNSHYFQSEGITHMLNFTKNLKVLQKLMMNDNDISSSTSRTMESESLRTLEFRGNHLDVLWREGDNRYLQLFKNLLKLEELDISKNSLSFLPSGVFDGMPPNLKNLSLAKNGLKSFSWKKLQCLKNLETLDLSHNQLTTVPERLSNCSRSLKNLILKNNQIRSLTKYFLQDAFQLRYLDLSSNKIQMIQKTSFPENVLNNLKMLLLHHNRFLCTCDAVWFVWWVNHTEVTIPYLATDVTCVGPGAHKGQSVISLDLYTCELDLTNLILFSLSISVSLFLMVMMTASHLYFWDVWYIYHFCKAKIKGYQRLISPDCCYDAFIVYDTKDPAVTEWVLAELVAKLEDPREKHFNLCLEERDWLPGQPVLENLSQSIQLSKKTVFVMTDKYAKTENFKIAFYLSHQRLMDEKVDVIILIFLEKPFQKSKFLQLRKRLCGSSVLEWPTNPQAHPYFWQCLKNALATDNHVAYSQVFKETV
Put plainly: TLR7 inhibition reporter assay (HEK-Blue, SEAP). The conditions noted are these: HEK-Blue cells overexpressing human TLR7, ligand gardiquimod 2.5 μM, 22 hour incubation. The gist of the method:
as §1

In a further experiment the target is T3, human TLR8 (Homo sapiens, UniProt Q9NR97).
T3 construct: host or cells: HEK-Blue cells
T3 sequence (Q9NR97 27-1041): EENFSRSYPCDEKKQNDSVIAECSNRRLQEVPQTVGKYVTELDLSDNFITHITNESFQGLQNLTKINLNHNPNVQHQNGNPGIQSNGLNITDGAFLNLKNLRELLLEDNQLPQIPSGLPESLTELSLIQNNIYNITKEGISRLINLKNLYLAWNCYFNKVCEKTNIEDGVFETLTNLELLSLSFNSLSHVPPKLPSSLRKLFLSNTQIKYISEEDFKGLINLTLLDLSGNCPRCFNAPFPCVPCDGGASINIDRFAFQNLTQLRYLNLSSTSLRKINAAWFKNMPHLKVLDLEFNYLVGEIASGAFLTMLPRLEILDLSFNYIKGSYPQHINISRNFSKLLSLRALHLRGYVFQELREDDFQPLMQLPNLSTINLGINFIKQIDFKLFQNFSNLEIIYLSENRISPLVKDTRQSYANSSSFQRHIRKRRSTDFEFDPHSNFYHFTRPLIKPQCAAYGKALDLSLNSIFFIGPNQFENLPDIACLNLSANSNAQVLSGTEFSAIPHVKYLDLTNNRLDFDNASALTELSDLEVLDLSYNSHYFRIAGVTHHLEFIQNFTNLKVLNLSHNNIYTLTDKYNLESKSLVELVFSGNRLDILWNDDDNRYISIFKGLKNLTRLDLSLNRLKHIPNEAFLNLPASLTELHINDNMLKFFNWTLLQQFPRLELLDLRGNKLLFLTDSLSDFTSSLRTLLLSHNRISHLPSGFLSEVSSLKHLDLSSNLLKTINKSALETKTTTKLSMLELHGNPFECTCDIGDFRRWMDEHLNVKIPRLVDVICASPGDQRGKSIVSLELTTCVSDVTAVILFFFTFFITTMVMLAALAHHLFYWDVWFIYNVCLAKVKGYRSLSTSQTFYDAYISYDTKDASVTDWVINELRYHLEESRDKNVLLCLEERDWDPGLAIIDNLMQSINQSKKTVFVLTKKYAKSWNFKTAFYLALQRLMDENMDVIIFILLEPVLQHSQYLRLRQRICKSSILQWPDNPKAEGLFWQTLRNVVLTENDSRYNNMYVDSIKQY
Briefly: TLR8 inhibition reporter assay (HEK-Blue, SEAP). As to conditions: HEK-Blue cells overexpressing human TLR8, ligand R848 14.25 μM, 22 hour incubation. In short, it runs like this:
as §1

Some results are limits rather than exact numbers.

Consider `Cc1cc(C2CCN(C3CCN(C(C)C)CC3)CC2)nc2c1nc(-c1ccc(S(C)(=O)=O)cc1)n2C` [Example 20, 5-(1′-isopropyl-[1,4′-bipiperidin]-4-yl)-3,7-dimethyl-2-(4-(methylsulfonyl)phenyl)-3H-imidazo[4,5-b]pyridine], for which the half-maximal inhibitory concentration (IC50) is 25 nM against human TLR9, 1400 nM against human TLR7 and above 50000 nM against human TLR8.

For `Cc1cc(C2CCN(C3CCN(CC(C)C)CC3)CC2)nc2c1nc(-c1ccc(S(C)(=O)=O)cc1)n2C` [Example 21, 5-(1′-isobutyl-[1,4′-bipiperidin]-4-yl)-3,7-dimethyl-2-(4-(methylsulfonyl)phenyl)-3H-imidazo[4,5-b]pyridine], the half-maximal inhibitory concentration (IC50) against human TLR9 was 24 nM; on human TLR7 it was 4400 nM; at human TLR8 it was above 50000 nM.

Regarding `Cc1cc(C2CCN(C3CCN(CC(C)(C)O)CC3)CC2)nc2c1nc(-c1ccc(S(C)(=O)=O)cc1)n2C` [Example 22, 1-(4-(3,7-dimethyl-2-(4-(methylsulfonyl)phenyl)-3H-imidazo[4,5-b]pyridin-5-yl)-[1,4′-bipiperidin]-1′-yl)-2-methylpropan-2-ol], the concentration for half-maximal inhibition (IC50) at human TLR9 was 26 nM; at human TLR7, 1300 nM; on human TLR8, above 25000 nM.

Regarding `Cc1cc(C2CCN(C3CCN(CC4CC4)CC3)CC2)nc2c1nc(-c1ccc(S(C)(=O)=O)cc1)n2C` [Example 23, 5-(1′-(cyclopropylmethyl)-[1,4′-bipiperidin]-4-yl)-3,7-dimethyl-2-(4-(methylsulfonyl)phenyl)-3H-imidazo[4,5-b]pyridine], the results for the IC50 against human TLR9, against human TLR7 and against human TLR8 were 61 nM, 1900 nM and above 50000 nM, respectively.

On to `Cc1cc(C2CCN(C3CCN(C4CCC4)CC3)CC2)nc2c1nc(-c1ccc(S(C)(=O)=O)cc1)n2C` [Example 24, 5-(1′-cyclobutyl-[1,4′-bipiperidin]-4-yl)-3,7-dimethyl-2-(4-(methylsulfonyl)phenyl)-3H-imidazo[4,5-b]pyridine], for which the 50% inhibitory concentration (IC50) against human TLR9 was 240 nM; at human TLR7 it was 5400 nM; against human TLR8 it was above 50000 nM.

Take `Cc1cc(C2CCN(C3CCN(C4CCOCC4)CC3)CC2)nc2c1nc(-c1ccc(S(C)(=O)=O)cc1)n2C` [Example 25, 3,7-dimethyl-2-(4-(methylsulfonyl)phenyl)-5-(1′-(tetrahydro-2H-pyran-4-yl)-[1,4′-bipiperidin]-4-yl)-3H-imidazo[4,5-b]pyridine]: the IC50 was 42 nM against human TLR9, 4100 nM at human TLR7 and above 50000 nM against human TLR8.

Turning to `Cc1cc(C2CCN(C3CC4CCC(C3)N4C3CCC3)CC2)nc2c1nc(-c1ccc(S(C)(=O)=O)cc1)n2C` (stereo not drawn) [Example 32, 5-(1-(8-cyclobutyl-8-azabicyclo[3.2.1]octan-3-yl)piperidin-4-yl)-3,7-dimethyl-2-(4-(methylsulfonyl)phenyl)-3H-imidazo[4,5-b]pyridine], the figures for the IC50 against human TLR9, at human TLR7 and at human TLR8 were 42 nM, 1600 nM and above 50000 nM, respectively.

For the molecule `Cc1cc(C2CCN(C3CC4CCC(C3)N4C3CCC3)CC2)nc2c1nc(-c1ccc(S(C)(=O)=O)cc1)n2C` (stereo not drawn) [Example 33, 5-(1-(8-cyclobutyl-8-azabicyclo[3.2.1]octan-3-yl)piperidin-4-yl)-3,7-dimethyl-2-(4-(methylsulfonyl)phenyl)-3H-imidazo[4,5-b]pyridine], the IC50 on human TLR9 is 69 nM; at human TLR7 it was 1500 nM; on human TLR8 it was 19000 nM.

Turning to `COc1ccc(-c2nc3c(C)cc(C4CCN([C@H]5C[C@@H]6CN(C(C)C)C[C@@H]6C5)CC4)nc3n2C)cc1OC` [Example 36, 2-(3,4-dimethoxyphenyl)-5-(1-((3aR,5s,6aS)-2-isopropyloctahydrocyclopenta[c]pyrrol-5-yl)piperidin-4-yl)-3,7-dimethyl-3H-imidazo[4,5-b]pyridine], the half-maximal inhibitory concentration (IC50) against human TLR9 is 140 nM; against human TLR7, 1000 nM; at human TLR8 it was above 50000 nM.

A word on the IC50: it is the concentration that inhibits the measured activity by half.
